Test results taken from patent US12383542B2, “Methods of treating ovarian cancer” (TESARO, INC., priority 2016, dated 2025).
Where “and” joins values, the source holds several entries; their conditions need not be identical. Equal values may be shown once. Where a name gives a salt, the structure may show the parent alone. Read-outs that look alike come from different tables or passages of the source.

Tests used:
ovarian cancer [1] = conditions: cited from earlier work
[2] = test system: platinum-sensitive epithelial ovarian cancer; conditions: cited from earlier work
ovarian cancer [3] = conditions: cited from earlier work; remark: listed apart in the source
ovarian cancer [4] = conditions: relatively small sample size; cited from earlier work
[5] = test system: MDA-MB-436, CAPAN-1, GRANTA-519, OVCAR3, HT29, DLD-1, patient derived Ewing's sarcoma and TNBC xenograft models; conditions: xenograft models in mice
[6] = test system: Ewing's sarcoma, ALL, NSCLC, SCLC cell lines and tumor cell lines carrying homozygous inactivation of the ATM gene
[7] = test system: cancer cell lines that have been silenced for BRCA-1 or BRCA-2, or carry BRCA-1 or BRCA-2 mutations
[8] = From the text: Patients continued to receive their assigned treatment until disease progression, unacceptable toxicity, death, withdrawal of consent, and/or lost to follow-up. Dose interruption and/or reduction were available at any time for any grade toxicity considered intolerable by the patient.
Dose interruption and/or reduction could be implemented at any time for any grade toxicity considered intolerable by the patient. Treatment was required to be interrupted for any non-hematologic AE that was Grade 3 or 4, per NCI CTCAE v.4.02 if the Investigator considered the event to be related to administration of study drug. If toxicity was appropriately resolved to baseline or Grade 1 or less within 28 days, the patient was allowed to restart treatment with study drug, but with a dose level reduction according to Table 4, if prophylaxis was not considered feasible.

PARP activity [9] = conditions: tumor homogenates
PARP activity [10] = conditions: mice dosed with niraparib
[11] = in vivo
Experimental: Patients with ovarian cancer regardless of platinum sensitivity and burden of disease were randomized to either Group A or Group B with 6 patients assigned to each group. […] In Group B, patients fasted for at least 10 hours before consuming a high fat meal.

[12] = test system: platinum-sensitive recurrent ovarian cancer; conditions: for patients with PFS events at the time of unblinding: patients entering with PR; for Time to second subsequent treatment, HR: <40% of events
PARP activity [13] = test: cells
[14] = test system: advanced BRCA-mutant ovarian cancer; conditions: cited from earlier work
[15] = all patients treated with niraparib
[16] = HRDneg group, listed as Niraparib

O=C(c1cc(Cc2n[nH]c(=O)c3ccccc23)ccc1F)N1CCN(C(=O)C2CC2)CC1 [olaparib, 4-[(3-{[4-(cyclopropylcarbonyl)piperazin-1-yl]carbonyl}-4-fluorophenyl)methyl]phthalazin-1(2H)-one]
Median PFS (ovarian cancer [1]; patients with BRCA mutations): 11.2 months | planned analysis of the subset of patients with BRCA mutations (ovarian cancer [1]; phase II maintenance study): a clear advantage | serious adverse events versus control group ([2]; human, in vivo): more common | change in overall survival ([2]; women with germline BRCA mutations, versus placebo or no treatment): no significant change | responses (ovarian cancer [3]; 17 patients with BRCA1 or BRCA2 mutations): 7 | responses (ovarian cancer [3]; 46 patients without these mutations): 11

C[C@]1(c2nc3c(C(N)=O)cccc3[nH]2)CCCN1 [veliparib, 2-[(R)-2-methylpyrrolidin-2-yl]-1H-benzimidazole-4-carboxamide]
effect on the progression of ovarian cancer (ovarian cancer [4]): unable to show any effect

NC(=O)c1cccc2cn(-c3ccc([C@@H]4CCCNC4)cc3)nc12 [niraparib, (3S)-3-[4-{7-(aminocarbonyl)-2H-indazol-2-yl}phenyl]piperidine]
antitumor activity [5]: strong antitumor activity | cytotoxicity [6]: selectively cytotoxic | consequence on cell cycle ([7]; BRCA-defective cells): cell cycle arrest in G2/M followed by apoptosis | anti-proliferative activity ([7]; compared to wild type counterparts): selective anti-proliferative activity | rate of MDS/AML ([8]; ITT population): 1.3% | treatment-emergent grade 3/4 anemia [8, 15]: 24.8% | treatment-emergent grade 3/4 neutropenia [8, 15]: 11.2% | treatment-emergent grade 3/4 thrombocytopenia [8, 15]: 28.3% | grade 5 events ([8]; human, in vivo, 300 mg QD): No grade 5 events occurred | TEAEs leading to dose reduction ([8]; in vivo): 67% | TEAEs leading to treatment discontinuation ([8]; in vivo): 15% | TEAEs leading to treatment interruption ([8]; in vivo): 69% | grade 3 or 4 bleeding event ([8]; in vivo): No patient | incidence of CTCAE Grade ≥3 TEAEs ([8]; in vivo): 74% | incidence of SAEs ([8]; in vivo): 30% | incidence of treatment-related TEAEs ([8]; in vivo): 98% | patients remaining on niraparib for the duration of the study ([8]; in vivo): ~85% | patients with at least 1 TEAE ([8]; in vivo): all patients | mean platelet count over time ([8]; overall niraparib treated population, after decrease by day 15): generally returned to near baseline by Cycle 4 | incidence of MDS/AML ([8]; patients who received niraparib (5 of 367)): 1.4% and 1% | target engagement (PARP activity) (PARP activity [9]): Target engagement has also been demonstrated | PARP activity in PBMCs (PARP activity [10]): Inhibition of PARP activity | activity on normal human cells (normal human cells): weak activity | bioavailability in fed versus fasted state [11]: substantially similar | % of Patients without Progression or Death at 6 Months ([12]; HRDneg group): 54% | % of Patients without Progression or Death at 12 Months ([12]; HRDneg group): 27% | % of Patients without Progression or Death at 18 Months ([12]; HRDneg group): 19% | % of Patients without Progression or Death at 12 Months [12, 16]: 27% | % of Patients without Progression or Death at 18 Months [12, 16]: 19% | % of Patients without Progression or Death at 6 Months ([12]; HRDpos group): 69% | % of Patients without Progression or Death at 12 Months ([12]; HRDpos group): 51% | % of Patients without Progression or Death at 18 Months ([12]; HRDpos group): 37% | chemotherapy-free interval ([12]; both cohorts, versus placebo): significantly improved | time to first subsequent treatment ([12]; both cohorts, versus placebo): significantly improved | Overall Survival, HR ([12]; combined cohorts, data immature, 80% of patients censored): HR 0.73 (95% CI: 0.480, 1.125) | Median PFS ([12]; combined study population (gBRCAmut and non-gBRCAmut), exploratory pooled analysis): 11.3 months | PFS by niraparib dose of longest duration (100, 200, 300 mg) ([12]; gBRCAmut and non-gBRCAmut cohorts): consistent with the overall population | % of Patients without Progression or Death at 6 Months ([12]; gBRCAmut cohort): 80% | % of Patients without Progression or Death at 12 Months ([12]; gBRCAmut cohort): 62% | % of Patients without Progression or Death at 18 Months ([12]; gBRCAmut cohort): 50% | Median PFS ([12]; gBRCAmut cohort): 21.0 Months | progression-free survival 2 ([12]; gBRCAmut cohort): 25.8 months | Median PFS ([12]; gBRCAmut cohort, listed as Niraparib): 21.0 Months and 21.0 (12.9, NE) Months | patients with PFS events at the time of unblinding ([12]; gBRCAmut): 45% | Time to second subsequent treatment, HR ([12]; gBRCAmut, data immature): HR 0.48 (95% CI: 0.272, 0.851) | impact of treatment on OS ([12]; in vivo): no detrimental impact | % of Patients without Progression or Death at 6 Months ([12]; non-gBRCAmut cohort): 61% | % of Patients without Progression or Death at 12 Months ([12]; non-gBRCAmut cohort): 41% | % of Patients without Progression or Death at 18 Months ([12]; non-gBRCAmut cohort): 30% | Median PFS ([12]; non-gBRCAmut, HRD negative): 6.9 Months | Median PFS ([12]; non-gBRCAmut, HRD negative, listed as Niraparib): 6.9 Months and 6.9 (5.6, 9.6) Months | Median PFS ([12]; non-gBRCAmut, HRD-positive): 12.9 Months | Median PFS ([12]; non-gBRCAmut, HRD-positive, listed as Niraparib): 12.9 Months and 12.9 (8.1, 15.9) Months | Median PFS ([12]; non-gBRCAmut, HRDpos/BRCAwt): 9.3 Months | Median PFS ([12]; non-gBRCAmut, HRDpos/somatic BRCAmut): 20.9 Months | patients with PFS events at the time of unblinding ([12]; non-gBRCAmut): 56% | Time to second subsequent treatment, HR ([12]; non-gBRCAmut, data immature): HR 0.74 (95% CI: 0.519, 1.066) | Median PFS ([12]; overall non-gBRCAmut cohort): 9.3 Months | median PFS 2 ([12]; overall non-gBRCAmut cohort): 18.64 months | Median PFS ([12]; overall non-gBRCAmut cohort, listed as Niraparib): 9.3 Months and 9.3 (7.2, 11.2) Months | PFS2-PFS1 (efficacy of next-line treatment) ([12]; pooled cohorts, versus placebo): similar | IC50 (PARP activity [13]; read-out: IC50 of PARP activity in cells): ~4 nM | IC90 (PARP activity [13]; read-out: inhibitory concentration at 90% of control (IC90)): ~50 nM

CNCc1ccc(-c2[nH]c3cc(F)cc4c3c2CCNC4=O)cc1 [rucaparib, 8-fluoro-2-{4-[(methylamino)methyl]phenyl}-1,3,4,5-tetrahydro-6H-azepino[5,4,3-cd]indol-6-one ((1S,4R)-7,7-dimethyl-2-oxobicyclo[2.2.1]hept-1-yl)methanesulfonic acid salt]
Response assessment by independent radiology review ([14]; 600 mg orally twice daily, 106 patients): 42% | median DOR ([14]; independent radiology review): 6.7 months | Investigator-assessed ORR ([14]; platinum-refractory patients): 0% | Investigator-assessed ORR ([14]; platinum-resistant patients): 25% | Investigator-assessed ORR ([14]; platinum-sensitive patients): 66%
